According to ChEMBL document CHEMBL1201862, “PubChem BioAssay data set” (2004):
Active and inactive are the calls of the source. Rule as the data show it: active = IC50 of 10 µM or less and inactive = more.

Key:
[1] = target: Neuropeptides B/W receptor type 1 (Homo sapiens, UniProt P48145); test: human NPBW1 receptor blockade, IC50 – cell-based, fluorescence, dose response, set 5, late-stage follow-up (AID 588566); format: functional
[2] = target: Melanin-concentrating hormone receptor 1 (Homo sapiens, UniProt Q99705); test: Late-stage fluorescence-based counterscreen for antagonists of the G-protein coupled receptor 7 (GPR7): cell-based dose response assay to identify antagonists of the melanin-concentrating hormone receptor 1 (MCHR1) Set 5.; format: functional
Sequence of Melanin-concentrating hormone receptor 1 (Q99705 whole entry): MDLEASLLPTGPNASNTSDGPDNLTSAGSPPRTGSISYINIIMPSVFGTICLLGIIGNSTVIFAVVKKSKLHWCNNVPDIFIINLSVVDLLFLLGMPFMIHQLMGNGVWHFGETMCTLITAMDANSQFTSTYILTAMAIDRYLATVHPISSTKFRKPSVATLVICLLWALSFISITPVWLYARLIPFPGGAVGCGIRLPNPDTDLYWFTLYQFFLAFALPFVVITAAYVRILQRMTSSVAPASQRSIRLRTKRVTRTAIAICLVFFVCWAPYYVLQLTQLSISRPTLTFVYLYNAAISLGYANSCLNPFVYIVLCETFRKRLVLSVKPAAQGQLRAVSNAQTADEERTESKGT

Sequence of Neuropeptides B/W receptor type 1 (P48145 whole entry): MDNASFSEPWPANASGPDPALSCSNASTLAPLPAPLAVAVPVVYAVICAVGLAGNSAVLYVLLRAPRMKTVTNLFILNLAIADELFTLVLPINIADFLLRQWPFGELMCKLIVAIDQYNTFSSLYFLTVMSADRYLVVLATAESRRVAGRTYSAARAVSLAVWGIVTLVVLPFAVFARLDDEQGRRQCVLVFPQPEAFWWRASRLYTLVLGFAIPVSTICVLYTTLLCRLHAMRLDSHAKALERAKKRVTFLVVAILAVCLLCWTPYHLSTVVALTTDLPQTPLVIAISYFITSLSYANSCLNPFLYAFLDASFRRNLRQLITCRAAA

Structure (SMILES): COc1ccc(Oc2c(Cl)cnn(Cc3ccccc3C#N)c2=O)cc1
- IC50 [1]: 1.45 µM (active)
- IC50 [2]: 11.4 µM (inactive)
